Measured values reported in publication PMC4655192 (Neuropharmacology, 2015).

Columns and labels:
[1] = system: MOR; settings: brain homogenates, inverse agonists; ref Wang et al., 2004; cited from earlier work
[2] = molecular target: KOR (Mus musculus, UniProt P33534); assay: Antagonism of U69,593-stimulated [35S]GTPγS binding in WT striatum; assay type: biochemical

Row | SMILES | suppression of MOR basal signaling activity [1] | IC50 [2] | blockade of U69,593 stimulated G protein activation ([2]; antagonist 10 μM, increasing concentrations of U69,593, WT) | % competition ([2]; vs 10 μM U69,593, WT striatum, n=3)
1 | O=C1/C(=C/c2ccccc2)C[C@@]2(O)[C@H]3Cc4ccc(O)c5c4[C@@]2(CCN3CC2CC2)[C@H]1O5 [BNTX] | less than 10% |  |  | 
2 | Oc1ccc2c3c1O[C@H]1c4[nH]c5c(c4C[C@@]4(O)[C@@H](C2)N(CC2CC2)CC[C@]314)C[C@@]1(O)[C@H]2Cc3ccc(O)c4c3[C@@]1(CCN2CC1CC1)[C@H]5O4 [NorBNI, Norbinaltorphimine] |  | 6 ± 1.6 nM | fully blocks | 99 ± 7%
